Source: patent US8759504B2, “Cholinergic/serotoninergic receptor and uses thereof” (AbbVie Inc., priority 2007, dated 2014)
“Also recorded” adds a separate entry of the source. Marks after values point to notes of the source that are not given here.

Assays:
Chimera 1 [1] = target: T1, Chimera 1 (Homo sapiens, UniProt P36544, M226I/T225V); assay: Membrane potential imaging (FLIPR-FMP) in HEK-293 cells; assay type: cell-based; parameters: expressed in transfected cells; details: for Modulation of submaximum agonist-evoked membrane potential response (words): HEK-293 cells, FMP
Chimera 2 [2] = target: T2, Chimera 2 (Homo sapiens, UniProt P36544, M226I/T225V); assay: Whole cell patch clamp in HEK-293 cells; assay type: cell-based; parameters: expressed in transfected cells
Chimera 2 [3] = target: T2, Chimera 2; assay: Membrane potential imaging (FLIPR-FMP) in HEK-293 cells; assay type: cell-based; parameters: expressed in transfected cells; details: for Modulation of submaximum agonist-evoked membrane potential response (words): HEK-293 cells, FMP
Chimera 2 [4] = target: T2, Chimera 2; assay: Two electrode voltage clamp in Xenopus oocytes (POETs), agonist and modulator responses; assay type: cell-based; parameters: expressed in transfected cells; host or cells: Xenopus laevis oocytes (transient, A2)
[5] = target: T3, rat brain α7* nicotinic acetylcholine receptors (Rattus norvegicus, UniProt Q05941); assay: [3H]A-585539 radioligand binding, rat brain homogenates
T3 construct: expressed both as a native (rat cortex) or α7/5-HT3 chimeric receptor; from tissue; host or cells: rat brain / rat cortex homogenates

Chimera 1 [6] = target: T1, Chimera 1; assay: Two electrode voltage clamp in Xenopus oocytes (POETs), agonist and modulator responses; assay type: cell-based; parameters: expressed in transfected cells; host or cells: Xenopus laevis oocytes (transient, A1)
[7] = target: T4, wild-type human 5-HT3A receptors (Homo sapiens, UniProt P46098); assay: Two electrode voltage clamp in Xenopus oocytes, agonist and modulator responses; assay type: cell-based
T4 construct: expressed in transfected cells; host or cells: Xenopus laevis oocytes
T4 sequence (P46098 1-484 isoform P46098-4): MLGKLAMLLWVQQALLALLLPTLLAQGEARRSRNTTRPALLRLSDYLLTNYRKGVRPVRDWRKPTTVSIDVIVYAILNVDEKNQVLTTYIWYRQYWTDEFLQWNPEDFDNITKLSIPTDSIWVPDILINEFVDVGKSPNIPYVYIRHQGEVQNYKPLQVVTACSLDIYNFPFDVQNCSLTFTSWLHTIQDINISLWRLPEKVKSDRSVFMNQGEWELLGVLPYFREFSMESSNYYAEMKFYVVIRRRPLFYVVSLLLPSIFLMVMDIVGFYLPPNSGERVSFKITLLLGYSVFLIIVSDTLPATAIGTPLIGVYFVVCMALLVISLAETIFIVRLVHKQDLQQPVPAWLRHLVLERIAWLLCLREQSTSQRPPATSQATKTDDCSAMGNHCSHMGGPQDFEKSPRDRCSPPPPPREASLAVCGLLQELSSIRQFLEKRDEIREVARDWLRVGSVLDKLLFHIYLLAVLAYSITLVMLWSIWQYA

Chimera 2 [8] = target: T2, Chimera 2; assay: [3H]A-585539 radioligand binding, HEK-293 membranes/homogenates; parameters: expressed in transfected cells
[9] = target: T5, wild-type α7 nicotinic acetylcholine receptor (Homo sapiens, UniProt P36544); assay: Two electrode voltage clamp in Xenopus oocytes, agonist and modulator responses; assay type: cell-based
T5 construct: expressed in transfected cells; host or cells: Xenopus laevis oocytes
T5 sequence (P36544 23-502): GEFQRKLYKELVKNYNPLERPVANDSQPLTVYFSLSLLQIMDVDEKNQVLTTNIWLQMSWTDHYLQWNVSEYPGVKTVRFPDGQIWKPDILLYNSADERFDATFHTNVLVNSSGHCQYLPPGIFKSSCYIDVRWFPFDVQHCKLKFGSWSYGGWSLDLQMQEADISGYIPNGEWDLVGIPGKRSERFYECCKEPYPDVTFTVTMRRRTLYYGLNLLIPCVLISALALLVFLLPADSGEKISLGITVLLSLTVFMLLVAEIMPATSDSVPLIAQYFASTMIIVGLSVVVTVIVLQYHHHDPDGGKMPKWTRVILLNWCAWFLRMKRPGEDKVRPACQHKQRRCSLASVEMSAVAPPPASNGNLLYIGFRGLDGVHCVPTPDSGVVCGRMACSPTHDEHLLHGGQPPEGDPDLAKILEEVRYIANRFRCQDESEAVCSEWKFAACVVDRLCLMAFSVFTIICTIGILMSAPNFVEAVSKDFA

T2 sequence (P36544 with tags, fused parts or gaps T225V/M226I): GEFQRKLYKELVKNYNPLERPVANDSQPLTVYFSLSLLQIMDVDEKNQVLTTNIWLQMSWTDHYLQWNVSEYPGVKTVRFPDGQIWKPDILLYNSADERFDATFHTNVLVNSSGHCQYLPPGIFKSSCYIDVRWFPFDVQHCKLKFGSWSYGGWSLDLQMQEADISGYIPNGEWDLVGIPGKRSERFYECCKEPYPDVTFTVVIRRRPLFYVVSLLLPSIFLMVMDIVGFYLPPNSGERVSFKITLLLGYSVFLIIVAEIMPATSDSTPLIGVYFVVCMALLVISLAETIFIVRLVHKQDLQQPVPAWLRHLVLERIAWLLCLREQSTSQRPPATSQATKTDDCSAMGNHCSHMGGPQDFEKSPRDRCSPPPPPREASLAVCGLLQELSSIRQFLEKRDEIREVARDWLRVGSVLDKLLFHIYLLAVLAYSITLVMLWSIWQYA
T3 sequence (Q05941 23-502): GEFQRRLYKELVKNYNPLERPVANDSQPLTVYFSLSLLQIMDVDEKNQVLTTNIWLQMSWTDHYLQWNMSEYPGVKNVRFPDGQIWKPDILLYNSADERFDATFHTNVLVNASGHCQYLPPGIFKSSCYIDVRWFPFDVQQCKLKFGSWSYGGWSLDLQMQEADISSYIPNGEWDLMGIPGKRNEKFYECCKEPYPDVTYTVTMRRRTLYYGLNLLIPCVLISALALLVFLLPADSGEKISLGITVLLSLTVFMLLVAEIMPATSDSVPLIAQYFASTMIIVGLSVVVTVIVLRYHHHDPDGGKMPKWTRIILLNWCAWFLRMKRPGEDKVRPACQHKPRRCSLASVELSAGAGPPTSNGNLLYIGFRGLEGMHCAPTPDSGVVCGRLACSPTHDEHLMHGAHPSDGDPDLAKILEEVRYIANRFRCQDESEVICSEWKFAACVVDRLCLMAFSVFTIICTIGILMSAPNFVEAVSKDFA
T1 sequence (P36544 with tags, fused parts or gaps T225V/M226I): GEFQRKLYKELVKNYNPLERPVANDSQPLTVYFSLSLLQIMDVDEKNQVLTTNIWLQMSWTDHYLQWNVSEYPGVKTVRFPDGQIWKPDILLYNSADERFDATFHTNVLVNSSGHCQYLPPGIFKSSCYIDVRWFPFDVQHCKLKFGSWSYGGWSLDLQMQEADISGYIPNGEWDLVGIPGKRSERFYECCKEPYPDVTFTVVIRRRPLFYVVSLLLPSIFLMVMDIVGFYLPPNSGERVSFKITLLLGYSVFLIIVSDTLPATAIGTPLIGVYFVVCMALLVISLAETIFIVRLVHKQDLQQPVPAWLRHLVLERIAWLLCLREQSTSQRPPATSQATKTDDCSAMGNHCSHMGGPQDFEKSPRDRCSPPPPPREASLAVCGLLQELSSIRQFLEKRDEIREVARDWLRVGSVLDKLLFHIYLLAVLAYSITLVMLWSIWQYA

O=c1c(-c2ccc(O)cc2)coc2cc(O)cc(O)c12 [Genistein, genistein]
Modulation of submaximum agonist-evoked membrane potential response (words) (Chimera 1 [1]): unable to do so | Modulation of submaximum agonist-evoked membrane potential response (words) (Chimera 1 [1]; listed as genistein): not effective as positive allosteric modulator; also recorded: inhibited Chimera 1 | IC50 (Chimera 1 [1]; read-out: FMP imaging: IC50 (95% C.I.), inhibition of agonist-evoked response, submaximum NS6784): 23.3 µM | Maximum positive allosteric modulation efficacy (Chimera 1 [1]; submaximum NS6784 120-200 nM): 14±3% | Directly evoked peak response normalized to 100 μM ACh (Chimera 2 [2]; 100 μM): 72.6±22.2% | Directly evoked total charge (integral) normalized to 100 μM ACh (Chimera 2 [2]; 100 μM): 162.5±5.3% | Direct current activation by modulator alone (Chimera 2 [2]; genistein 100 μM, 5-HI 10 mM): directly activated the Chimera 2 receptor current | Positive allosteric modulation of ACh-evoked current (Chimera 2 [2]; genistein 30-50 μM, 5-HI 1 mM): effective as positive allosteric modulators | Modulation of submaximum agonist-evoked membrane potential response (words) (Chimera 2 [3]): enhanced agonist-evoked depolarization | Modulation of submaximum agonist-evoked membrane potential response (words) (Chimera 2 [3]; listed as genestein): very effective | Modulation of submaximum agonist-evoked membrane potential response (words) (Chimera 2 [3]; listed as genistein): potentiated submaximum NS6784 evoked responses; also recorded: potentiated Chimera 2 receptors | EC50 (Chimera 2 [3]; read-out: FMP imaging: positive allosteric modulation EC50 (95% C.I.), submaximum NS6784 (60-70 nM)): 4.3 µM | Maximum positive allosteric modulation efficacy (Chimera 2 [3]; submaximum NS6784 60-70 nM): 221±30% | Percentage potentiation of submaximum agonist-evoked responses (mean±S.E.M.) (Chimera 2 [4]; 10-30 μM ACh): 234±19% | Direct current activation by modulator alone (Chimera 2 [4]; Xenopus oocytes): activated currents at 30 and 100 μM; also recorded: evoked unique agonist-like current | Effect of modulator on ACh-evoked current (words) (Chimera 2 [4]; Xenopus oocytes): potentiated peak amplitude of ACh current responses | Fold increase of submaximum ACh-evoked currents (Chimera 2 [4]; Xenopus oocytes): 2-3 fold | Effect of modulator on ACh-evoked current (words) (Chimera 2 [4]; Xenopus oocytes, listed as genestein): potentiated ACh responses in Chimera 2 | EC50 (Chimera 2 [4]; read-out: Positive allosteric modulation potency, two electrode voltage clamp: EC50 (95% C.I.)): 5.2 µM | Effect on [3H]A-585539 saturation binding ([5]; 10 μM): did not alter the saturation profile; also recorded: did not alter the saturation binding | Competition / displacement of [3H]A-585539 binding ([5]; rat cortex, increasing concentrations): neither compound effectively displaced the binding | Percentage potentiation of submaximum agonist-evoked responses (mean±S.E.M.) (Chimera 1 [6]; 100 μM ACh): 65±27% | Direct current activation by modulator alone (Chimera 1 [6]; Xenopus oocytes): did not activate currents | inhibition at 100 µM (Chimera 1 [6]; read-out: Observed % inhibitory effect on submaximum ACh-evoked response): ~35% | Percentage potentiation of submaximum agonist-evoked responses (mean±S.E.M.) ([7]; 1-3 μM 5-HT): 52±7% | Direct current activation by modulator alone ([7]; Xenopus oocytes): did not activate currents | Effect of modulator on agonist (5-HT)-evoked current ([7]; Xenopus oocytes): Neither compound increased the responses | Observed % inhibitory effect on submaximum 5-HT-evoked response ([7]; at 30 μM): ~48%^a at 30 | inhibition at 30 µM ([7]; at 30 μM, read-out: Observed % inhibitory effect on submaximum 5-HT-evoked response): ~50% | Effect on [3H]A-585539 saturation binding (Chimera 2 [8]; 10 μM): did not alter the saturation profile; also recorded: did not alter the saturation binding | Competition / displacement of [3H]A-585539 binding (Chimera 2 [8]; increasing concentrations): neither compound effectively displaced the binding | Percentage potentiation of submaximum agonist-evoked responses (mean±S.E.M.) ([9]; 100 μM ACh): 246±17% | EC50 ([9]; Positive allosteric modulation potency, two electrode voltage clamp: EC50 (95% C.I.), submaximum ACh (100 μM)-evoked response): 10.6 µM | Direct current activation by modulator alone ([9]; Xenopus oocytes): did not activate currents | Effect of modulator on ACh-evoked current (words) ([9]; Xenopus oocytes): primarily increasing the current amplitude | Fold increase of submaximum ACh-evoked currents ([9]; Xenopus oocytes): 2-3 fold
